Structures are written as SMILES.

One may read the viability as a read-out of living cells in per cent, often relative to untreated cells.

The first data set can be described thus: in vitro. As to conditions: human, hela cells, % viability.
With `Cc1ncsc1CCOc1nc2ccccc2nc1NC(C)C` [CBK115736], the viability at 28.5 h, 10 µM amounted to 102%.

On to `COc1ccc(C(C)C)cc1-c1cnc2[nH]c(=O)n(C3CC3)c2n1` [CBK064915], for which the viability at 28.5 h, 10 µM came out at 91.2%. Still for that read-out and setting: then `COC(=O)c1sccc1NC(=O)/C=C/c1ccccc1` [CBK057041], with 115%; and `CNS(=O)(=O)CCNC(=O)N1CCCN(Cc2ccc(F)cc2)CC1` [CBK304658], with 88.8%. With `CCCCN(C)c1c(CC)nc2ccc(C(=O)NCCc3ccccn3)cn12` [CBK145441], the viability at 28.5 h, 10 µM turned out to be 98.4%.

Take `COc1ccccc1Cc1noc(COc2cccc(C)c2C)n1` [CBK265521]: the viability at 28.5 h, 10 µM turned out to be 99.9%. On the same count and under the same terms, then `O=C(CCCOc1ccccc1)Nc1ccc([N+](=O)[O-])cc1` [CBK263690], with 97.9%; and `COc1cccc(-c2nnc(NC(=O)c3ccc4c(c3)OCCO4)o2)c1` [CBK287591], with 108%; and `O=C(NCc1ccncc1)C1CC1c1ccccc1` (stereo not shown) [CBK288242], with 107%.

As to `CNC(=O)NC(=O)CN1CCC(CNc2ncccc2C#N)C1` (stereo not shown) [CBK306126], the viability at 28.5 h, 10 µM came to 77.4%.

Turning to `Cc1ccc(NC(=O)c2ccc(-c3cccc([N+](=O)[O-])c3)o2)cc1-c1nc2ncccc2o1` [CBK262947], the viability at 28.5 h, 10 µM was determined as 89.7%. The same measure, in the same setting: then `CC(=O)Nc1ccc(CN(CCO)C2CCc3ccccc32)cc1` (stereo not shown) [CBK304104], with 93.2%; and `CCC(=O)Nc1ccccc1C(=O)C(=O)O` [CBK219398], with 120%. Still for that read-out and setting: then `O=c1oc(-c2cccnc2)nn1Cc1ccccc1F` [CBK283774], with 87.1%. Still for that read-out and setting: then `CC(=O)c1cccc(NC(=O)c2cc(S(=O)(=O)N(C)C)ccc2Cl)c1` [CBK265732], with 111%; and `Cc1cccnc1C(c1ccc(F)cc1)N(C)C(=O)C1CCN(CCc2ccc(Br)cc2)CC1` (stereo not shown) [CBK148397], with 90.5%.

As for `COc1ccccc1-c1nnc(SCc2cccc(C(=O)O)c2)[nH]1` [CBK269952], the viability at 28.5 h, 10 µM was found to be 85.3%. Still for that read-out and setting: then `COCCNC(=O)c1cnn2c(C)c(Cc3ccccc3C)c(C)nc12` [CBK160253], with 94.5%; and `CC(=O)c1ccc(NC(=O)CC2SC(=N)NC2=O)cc1` (stereo not shown) [CBK265625], with 83.9%; and `CCOC(=O)c1c(-c2ccccc2)csc1NS(=O)(=O)c1ccc(C)cc1` [CBK015841], with 95.1%.

Regarding `CC(=O)c1ccc(NC(=O)COn2nnc3ccc([N+](=O)[O-])cc32)cc1` [CBK266980], the viability at 28.5 h, 10 µM turned out to be 101%. Still for that read-out and setting: for `COc1ccc(C(=O)O)cc1S(=O)(=O)N1CCCCCC1` [CBK261742] the value was 99.2%; for `CC(=O)N[C@H]1CO[C@H]2[C@@H]1OC[C@@H]2n1nnnc1-c1ccccc1` [CBK289483], 87.1%. Take `CC(C)CC(=O)Nc1ccc2nc(SCC(=O)O)sc2c1` [CBK299801]: the viability at 28.5 h, 10 µM worked out at 96.4%. Same read-out and setting: then `O=C(NCc1nnc(-c2cccs2)o1)C1(c2ccc(F)cc2)CC1` [CBK284638], with 74.4%; and `CCOc1ccc2nc(NC(=O)c3nc(SCc4ccccc4)ncc3Cl)sc2c1` [CBK269109], with 97.1%. In the case of `Cc1ccc(C(=O)N2CCC(C(=O)NC(c3ccccc3)c3ccsc3)CC2)cc1` (stereo not shown) [CBK060154], the viability at 28.5 h, 10 µM was 109%. Same read-out and setting: for `C[C@H](Nc1cncc(-c2cccc3ccccc23)n1)c1ccccc1` [CBK065654] the value was 93.6%; for `O=C(O)C1CCCCC1C(=O)Nc1ccc(S(=O)(=O)N2CCCCC2)cc1` (stereo not shown) [CBK267950], 109%; for `CC(CC(=O)NC(c1ccc(F)cc1)c1nccn1C)n1cccn1` (stereo not shown) [CBK281454], 93.7%. Same read-out and setting: for `c1ccc(CCNc2cc(-c3ccsc3)ncn2)nc1` [CBK036963] the value was 93.9%; for `CCNC(=O)Nc1nc2cccnc2cc1-c1ccccc1` [CBK081239], 101%. As for `Cc1ccc(S(=O)(=O)N(CC(=O)O)c2ccccc2C)cc1` [CBK262423], the viability at 28.5 h, 10 µM turned out to be 101%. Same read-out and setting: then `COc1ccccc1-c1ccc(CC2(C(=O)NC3CCCCC3)CCOCC2)cc1` [CBK286515], with 98.4%.

With `COc1cc(-c2cncc(N3CCC(C(=O)O)CC3)n2)cc(OC)c1OC` [CBK037973], the viability at 28.5 h, 10 µM was determined as 100%. Same read-out and setting: then `N[C@H]1CC[C@H](N(CCc2ccccc2)C(=O)N[C@@H]2C[C@H]2c2ccccc2)CC1` [CBK000474C], with 110%; and `C/C(=C(/C(=O)N(N)c1nc2ccccc2s1)C(=O)C(F)(F)F)N1CCC(C(N)=O)(N2CCCCC2)CC1` [CBK265787], with 101%. Still for that read-out and setting: then `COC(=O)N1CCC(C(=O)NC(c2ccccc2)c2nc(OC)cc(OC)n2)CC1` (stereo not shown) [CBK059651], with 90.6%; and `COc1cccc(-c2nn(CCC#N)cc2C(N)=O)c1` [CBK305835], with 95%. Same read-out and setting: for `O=C(O)CNS(=O)(=O)c1cc(Cl)c(Cl)cc1Cl` [CBK266136] the value was 96.6%; for `COc1cc(NC(=O)c2nc[nH]n2)c(OC)cc1Cl` [CBK288170], 93%; for `NCc1ccc(CN(Cc2cnc(-c3ccccc3)[nH]2)C(=O)Nc2ccc3c(c2)OCO3)cc1` [CBK046158C], 89%. For `CCNC(=O)[C@H]1CC[C@]2(CC1)CNC(=O)c1cc(Cl)ccc1O2` [CBK284890], the viability at 28.5 h, 10 µM was 95.4%. Turning to `Cn1cc(-c2ccc(OCC3CCN(C(=O)OC(C)(C)C)CC3)cn2)cn1` [CBK173498], the viability at 28.5 h, 10 µM stood at 77.8%.

In the case of `Cc1ccc2[nH]c(Cc3ccc(NC(=O)CCC4C(=O)Nc5ccccc54)cc3)nc2c1` (stereo not shown) [CBK285824], the viability at 28.5 h, 10 µM amounted to 91%. The same measure, in the same setting: for `C[S+]([O-])c1nc2ccccc2s1` (stereo not shown) [CBK028233] the value was 93.5%; for `COc1ccnc(N2CCC(Oc3cccnc3N(C)C)C2)n1` (stereo not shown) [CBK304699], 92.4%.

With `O=C(O)CCNS(=O)(=O)c1cccc(Cl)c1` [CBK267328], the viability at 28.5 h, 10 µM was 106%. Same read-out and setting: then `N#Cc1cc2c(nc1SCC(O)COCc1ccccc1)CCCC2` (stereo not shown) [CBK265967], with 104%; and `Cn1c(=O)n(C)c2cc(S(=O)(=O)NCCC(=O)O)ccc21` [CBK267565], with 105%. Same read-out and setting: then `CNC(=O)c1cccc(NS(=O)(=O)c2sc3ccc(Cl)cc3c2C)c1` [CBK160383], with 89.3%.

For `CCN(CC)S(=O)(=O)c1cc(S(=O)(=O)N(CC)CC)c2cccc3c2c1NC(=O)O3` [CBK005022], the viability at 28.5 h, 10 µM came out at 85.3%. With `CCCC1CCN(CC2C=Cc3cc(-c4ccc(S(C)(=O)=O)cc4)ccc3O2)CC1` (stereo not shown) [CBK158647], the viability at 28.5 h, 10 µM turned out to be 86.2%. The same measure, in the same setting: for `CCC(=O)NCc1ccc(-c2nc3ncccc3o2)cc1` [CBK270220] the value was 108%; for `CCOC(=O)c1[nH]c(=O)[nH]c1CSc1ccccn1` [CBK027725], 94%; for `Cc1nnc(-c2cccc(S(=O)(=O)n3ccn(-c4cccc(C(F)(F)F)c4)c3=O)c2)o1` [CBK106592], 91.9%. For `O=C(Cc1ccccc1)N(Cc1ccco1)C1CCN(c2ccc3c(c2)OCCO3)CC1` [CBK286529], the viability at 28.5 h, 10 µM is 106%. As for `COc1ccc(OC)c(NC(=O)COc2ccc(C(C)C)cc2)c1` [CBK263498], the viability at 28.5 h, 10 µM came out at 114%. Consider `Cc1ccc2[nH]cc(CCN3CCC4(CC3)NCCc3c4[nH]c4ccc(OCc5ccccc5)cc34)c2c1` [CBK039342], for which the viability at 28.5 h, 10 µM came out at 91.8%. Still for that read-out and setting: then `Cc1ccc2[nH]c3c(c2c1)CCCC3NCC(O)Cc1ccccc1` (stereo not shown) [CBK263154], with 87.2%. For `c1cncc(COc2nccnc2OC2CCN(Cc3cccnc3)CC2)c1` [CBK083158], the viability at 28.5 h, 10 µM was 108%. On the same count and under the same terms, then `COc1ccc(OCCN2CCC3(CC2)CN(S(C)(=O)=O)c2ccccc23)cc1` [CBK126681], with 95.5%; and `CC(=O)Nc1ccc(S(=O)(=O)/N=C(\Nc2nc(C)cc(C)n2)Nc2ccccc2F)cc1` [CBK266134], with 106%. With `CNC(=O)c1cc2ncc(C(F)(F)F)cc2s1` [CBK089882], the viability at 28.5 h, 10 µM worked out at 93.1%. Still for that read-out and setting: for `OC1CCC(Nc2nc(-c3ccccc3)cn3ccnc23)CC1` (stereo not shown) [CBK037329] the value was 98.5%; for `CN(C)C(=O)Cn1nc(C(c2ccccc2)c2ccccc2)oc1=O` [CBK283747], 92.6%. Consider `COc1ccc(CN2CCN(c3ccc(F)cc3)CC2)cc1OCc1ccccc1` [CBK261894], for which the viability at 28.5 h, 10 µM is 95%.

In the case of `CC(C)CC1C(C#N)=C(N)Oc2[nH]nc(-c3cccs3)c21` (stereo not shown) [CBK267449], the viability at 28.5 h, 10 µM turned out to be 104%. Turning to `Cc1ccc(NC(=O)N2CCCC(C(=O)O)C2)cc1` (stereo not shown) [CBK161371], the viability at 28.5 h, 10 µM was determined as 89.5%. For the molecule `CCOC(=O)c1[nH]c2ccccc2c1NC(=O)c1cc(F)cc(Cl)c1` [CBK160143], the viability at 28.5 h, 10 µM is 95.4%. The same measure, in the same setting: for `CO[C@@H]1CO[C@H]2[C@@H]1OC[C@@H]2Nc1nccc(-c2cccc(C#N)c2)n1` [CBK289532] the value was 79.8%; for `O=C1C2C=NNC2C(=O)N1c1ccccc1` (stereo not shown) [CBK022326], 103%; for `CCN(CC(C)C#N)C(=O)c1ccc2ccccc2n1` (stereo not shown) [CBK304801], 96.6%. In the case of `O=C1Nc2ccc(-c3cccc(C(F)(F)F)c3)cc2C(=O)N2C[C@H](O)C[C@@H]12` [CBK289273], the viability at 28.5 h, 10 µM was found to be 106%. On the same count and under the same terms, for `COC(=O)Cn1c(=O)n(CCc2ccccc2)c(=O)c2c3c(sc21)CCCC3` [CBK267666] the value was 98.6%; for `O=C(O)c1cc(-c2ccc(-c3ccc(Cl)c(C(F)(F)F)c3)o2)nc2ccc(F)cc12` [CBK300501], 111%; for `COCCN(CCOC)Cc1c(C)nc2c(C)c(C)ccc2c1O` [CBK265031], 102%. The same measure, in the same setting: for `NC(=O)c1cccc(-c2cnc(N)c(NC3CCOCC3)n2)c1` [CBK063836] the value was 98.8%.

Still in this data set, the particulars now being: human, hela cells, % viability, bulk resorufin, single well.
For the molecule `CNCCc1csc2ccc(C)cc12` [CBK026097], the viability at 28.5 h, 10 µM amounted to 91.6%.

The values are drawn from paper PMC12040169 (PLOS Biology, 2025).
